These results are taken from US5654299A, “Aryl substituted heterocycles” (Zeneca Limited, priority 1993, dated 1997).

For one test, the target named is T1, guinea pig trachea (Cavia porcellus, UniProt Q64077).
T1 sequence (Q64077 1-402): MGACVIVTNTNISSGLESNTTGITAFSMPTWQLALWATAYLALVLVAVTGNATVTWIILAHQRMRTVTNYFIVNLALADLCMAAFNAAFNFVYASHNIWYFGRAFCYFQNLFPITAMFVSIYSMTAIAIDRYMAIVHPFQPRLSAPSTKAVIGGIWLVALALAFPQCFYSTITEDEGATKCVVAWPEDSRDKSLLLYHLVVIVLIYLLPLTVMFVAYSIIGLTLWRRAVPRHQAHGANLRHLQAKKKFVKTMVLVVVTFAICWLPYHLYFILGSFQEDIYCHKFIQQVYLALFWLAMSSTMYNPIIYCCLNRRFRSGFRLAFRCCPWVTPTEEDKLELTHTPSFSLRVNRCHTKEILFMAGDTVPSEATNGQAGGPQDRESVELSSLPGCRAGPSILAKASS
The experiment in a line: Guinea Pig Trachea Assay (Test B), antagonism of NKA or [β-ala^8]-NKA(4-10). The format is cell-based. Conditions: for Kb: guinea pig trachea, apparent dissociation constant, -log molar KB.

A further test concerns the target T2, human NK2 receptor (Homo sapiens, UniProt P21452).
T2 sequence (P21452 1-398): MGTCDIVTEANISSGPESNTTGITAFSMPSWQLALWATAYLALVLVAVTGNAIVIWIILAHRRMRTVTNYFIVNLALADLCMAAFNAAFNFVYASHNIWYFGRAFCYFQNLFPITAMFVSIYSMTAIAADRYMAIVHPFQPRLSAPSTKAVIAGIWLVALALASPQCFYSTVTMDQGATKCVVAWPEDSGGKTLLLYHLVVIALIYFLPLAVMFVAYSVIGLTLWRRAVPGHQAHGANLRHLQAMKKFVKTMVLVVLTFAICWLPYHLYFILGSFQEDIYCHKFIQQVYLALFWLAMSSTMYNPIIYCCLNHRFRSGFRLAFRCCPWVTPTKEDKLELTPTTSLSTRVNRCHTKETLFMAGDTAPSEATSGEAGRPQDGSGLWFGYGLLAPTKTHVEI
Nature of the test: Neurokinin A (NKA) Receptor-binding Assay (Test A), 3H-NKA binding to MEL cell membranes (MELM).

For test [1], the system named is NKA receptor from rat duodenum membranes. Particulars: Edmonds-Alt (1993), cited from earlier work; for Ki: rat duodenum membranes, read-out: inhibition constant (Ki), [125I]-NKA binding.
The next test deals with NK2 receptor. Nature of the test: Guinea Pig Labored Abdominal Breathing (Dyspnea) Assay (Test C), [β-ala^8]-NKA(4-10) aerosol. It counts as in vivo. Particulars: 5 μmol/kg p.o., 120 min prior. The method, then:
Guinea Pig Labored Abdominal Breathing (Dyspnea) Assay (Test C)
Using the clear plastic chamber described previously by Snyder et al. to secure guinea pigs for a head-only aerosol exposure to bronchoconstrictor agonists, agonist is administered by aerosol to six conscious guinea pigs simultaneously during each maneuver. The tachykinin NK2-selective agonist, [β-ala^8 ]-NKA(4-10), 3×10^-5 M, is aerosolized from a Devilhiss Model 25 ultrasonic nebulizer into an air stream entering the chamber at a rate of 2 L/minute.
Guinea pigs (275-400 g) are fasted for approximately 16 hours prior to experimentation. Compounds to be evaluated for blockade of effects of [β-ala^8 ]-NKA(4-10) or their vehicle (10% PEG400 in saline) are administered p.o. or i.v. at various times before aerosol agonist challenge. All animals are pretreated with atropine (10 mg/kg, i.p., 45 minutes pretreatment) indomethacin (10 mg/kg, i.p., 30 minutes pretreatment), propranolol (5 mg/kg, i.p., 30 minutes pretreatment), and thiorphan (1 mg/ml aerosol for 5 minutes, 15 minutes pretreatment).
Aerosol challenge with the agonist produces an initial increase in respiratory rate followed by a decrease with early signs of minor involvement of the abdominal muscles. The respiratory rate decreases further and the breathing becomes more labored with greater involvement of the abdominal muscles as exposure continues. The distinctly recognizable end point is the point where the breathing pattern of the guinea pig is consistently slow, deep, and deliberate, showing marked involvement of the abdominal muscles. Time, in seconds, from the onset of aerosol challenge to this end point is determined for each animal by using a stopwatch. […] Antagonists result in an increase in the time to reach the end point. Animals receive the aerosol administration of agonist for a maximum time of 780 seconds.
Differences between drug treated groups and corresponding vehicle treated control groups are compared using Student's t-test for unpaired observations.

A further test concerns neurokinin receptors. Conditions: EPA 559538; cited from earlier work.
Where [2] appears, read: read-out: pKB (Test B) (converted).

Where “and” joins values, the source holds several entries; their conditions need not be identical. Equal entries are not always repeated. Structures can show the parent of a compound that is named as a salt. Where two headings read alike, the source gives them in different places. Bounds are passed on as bounds.

Protocol for guinea pig trachea: In the test described below either NKA or [β-ala^8 ]-NKA(4-10) is used as an agonist. The chosen agonist is referred to as AG throughout the description.
Male guinea pigs are killed by a sharp blow to the back of the head. The trachea are removed, trimmed of excess tissue and divided into two segments. Each segment is suspended as a ring between stainless steel stirrups in water-jacketed (37.5° C.) tissue baths containing a physiological salt solution of the following composition (mM): NaCl, 119; KCl 4.6; CaCl2, 1.8; MgCl2, 0.5; NaH2 PO4, 1; NaHCO3, 25; glucose, 11; thiorphan, 0.001; and indomethacin, 0.005; gassed continuously with 95% O2 -%5 CO2. Initial tension placed on each tissue is 1 g, which is maintained throughout a 0.5 to 1.5 hour equilibration period before addition of other drugs. Contractile responses are measured on a Grass polygraph via Grass FT-03 force transducers.
Tissues are challenged repetitively with a single concentration of AG (10 nM) with intervening 30 min periods with washing to allow the tension to return to baseline levels. The magnitude of the contractions to AG reaches a constant level after two challenges, and each Compound is tested for inhibition of responses to AG by addition to the tissue bath 15 minute before the third or subsequent exposure to the agonist. The contractile response to AG in the presence of Compound is compared to that obtained with the second AG challenge (in the absence of Compound). Percent inhibition is determined when a Compound produces a statistically significant (p<0.05) reduction of the contraction and is calculated using the second contractile response as 100%.
Potencies of selected Compounds are evaluated by calculating apparent dissociation constants (KB) for each concentration tested using the standard equation:
KB =[antagonist]/(dose ratio-1)
where dose ratio=antilog[(AG -log molar EC50 without Compound)-(AG -log molar EC50 with Compound)]. The KB values may be converted to the negative logarithms and expressed as -log molar KB (i.e. pKB). For this evaluation, complete concentration-response curves for AG are obtained in the absence and presence of Compound (30 min incubation period) using paired tracheal rings. The potency of AG is determined at 50% of its own maximum response level in each curve. The EC50 values are converted to the negative logarithms and expressed as -log molar EC50. Maximum contractile responses to AG are determined by expressing the maximum response to AG as a percentage of the contraction caused by carbachol (30 μM), added after the initial equilibration period. When a statistically significant (p<0.05) reduction of the maximum response to AG is produced by a compound, the percent inhibition is calculated relative to the percentage of carbachol contraction in the untreated, paired tissue used as 100%.
Protocol for human NK2 receptor: MEL C88 cells (A. Deisseroth et al., Cell (1978) 1-5, 55-63) were electroporated (M. Antoniou, Methods Molecular Biology (1991) 7, 421-434) with PvuI linearized pGSE1417/human NK2 receptor DNA. Directly after transfection, cells were diluted in culture medium to 10^4 and 10^5 cell per mL and 1 mL aliquots transferred to each well of a 24-well plate. G418 was added to a concentration of 1 mg/mL 24 hours after the transfection to select for stable transfectants. Individual clones were picked or pooled to generate populations seven to ten days after the addition of selective medium. […] Samples were taken 4 days post induction for mRNA and NKA binding analyses.
Membrane preparations (MELM) prepared from the MEL cells containing high-affinity NK2 receptors were prepared according to a published protocol (D. Aharony, et al., Neuropeptides (1992) 23, 121-130) with the following minor modifications: (1) Iodoacetamide (1 mM) was included in the homogenization buffer; (2) Homogenization was as published but for a shorter period of 10 seconds once and at a slower speed (setting 10); and (3) The equilibration step with KCl/EDTA was not performed.

Turning to `Cc1nnc(C2CCN(CCC(CN(C)C(=O)c3ccccc3)c3ccc(Cl)c(Cl)c3)CC2)o1` (centres unmarked) [Example 7, N-[2-(3,4-Dichlorophenyl)-4-[4-(5-methyl-1,3,4-oxadiazol-2-yl)piperidino]butyl]-N-methylbenzamide hydrochloride], the Kb at guinea pig trachea (setting [2]) was 79.4 nM. The Ki (commonly a measure of affinity in units of concentration, obtained from inhibition or displacement) on human NK2 receptor (read-out: Ki (Test A)) worked out at 21.1 nM.
Regarding `CN(CC(CCN1CCC(c2ccccc2)CC1)c1ccc(Cl)c(Cl)c1)C(=O)c1ccccc1.Cl` (centres unmarked) [Example 1, N-[2-(3,4-Dichlorophenyl)-4-(4-phenylpiperidino)butyl]-N-methylbenzamide hydrochloride], in test [1], the “biological activity of the benzamide in words” value is recorded as “lack of biological activity” and the Ki is greater than 100 nM. In addition, the “NK2 antagonism in words, Test B” value at guinea pig trachea (functional assay Test B) is recorded as “potent NK2 antagonist”. The Kb at guinea pig trachea (setting [2]) is 10 nM and 6.31 nM. Besides, the “NK2 antagonism in words, Test A” value at human NK2 receptor (in vitro screen Test A) was “potent NK2 antagonist”. Also, at human NK2 receptor (read-out: Ki (Test A)), the Ki was 2.6 nM. Also, in the test on NK2 receptor, the “number fully protected/total number tested (Test C)” value is 0/6 and the “percent protection (Test C)” value was 17%.
On to `COc1ccccc1C1CCN(CCC(CN(C)C(=O)c2ccccc2)c2ccc(Cl)c(Cl)c2)CC1` (centres unmarked) [Example 2, N-[2-(3,4-Dichlorophenyl)-4-[4-(2-methoxyphenyl)piperidino]butyl]-N-methylbenzamide hydrochloride], for which the Kb at guinea pig trachea (setting [2]) is 5.01 nM. For the same compound, the Ki on human NK2 receptor (read-out: Ki (Test A)) was determined as 9 nM.
For `CC(C)Oc1cccc(CC(=O)N(C)CC(CCN2CCC(c3ccccc3)CC2)c2ccc(Cl)c(Cl)c2)c1` (centres unmarked) [N-[2-(3,4-dichlorophenyl)-4-(4-phenylpiperidino)butyl]-N-methyl-3-isopropoxyphenylacetamide], in the test on neurokinin receptors, the “affinity for neurokinin receptors” value is on record as “high affinity”.
For `CN(C[C@@H](CCN1CCC(c2ccccn2)CC1)c1ccc(Cl)c(Cl)c1)C(=O)c1ccccc1.Cl` [Example 27, (S)-N-[2-(3,4-Dichlorophenyl)-4-[4-(2-pyridyl)piperidino]butyl]-N-methylbenzamide hydrochloride], the Kb on guinea pig trachea (setting [2]) was 12.6 nM. For the same compound, the Ki on human NK2 receptor (read-out: Ki (Test A)) was 2 nM. For the same compound, in the test on NK2 receptor, the “number fully protected/total number tested (Test C)” value is 2/6 and the “percent protection (Test C)” value came out at 54%.
The like results for `CN(C[C@@H](CCN1CCC(c2ccc([S+](C)[O-])cc2)CC1)c1ccc(Cl)c(Cl)c1)C(=O)c1ccccc1.Cl` (stereo partly drawn) [Example 16, (S)-N-[2-(3,4-Dichlorophenyl)-4-[4-(4-methylsulfinylphenyl)piperidino]butyl]-N-methylbenzamide hydrochloride] were, in that order, 6.31 nM, 0.6 nM, 5/6 and 88%.
As for `CSc1ccc(C2CCN(CC[C@H](CN(C)C(=O)c3ccccc3)c3ccc(Cl)c(Cl)c3)CC2)cc1.Cl` [Example 15, (S)-N-[2-(3,4-Dichlorophenyl)-4-[4-(4-methylthiophenyl)piperidino]butyl]-N-methylbenzamide hydrochloride], the Kb on guinea pig trachea (setting [2]) was 2 nM. In addition, the Ki on human NK2 receptor (read-out: Ki (Test A)) worked out at 2 nM. Besides, in the test with NK2 receptor, the “number fully protected/total number tested (Test C)” value is 6/6 and the “percent protection (Test C)” value is listed as 100%.
For the compound `CN(CC(CCN1CCC(c2ccccc2O)CC1)c1ccc(Cl)c(Cl)c1)C(=O)c1ccccc1` (centres unmarked) [Example 6, N-[2-(3,4-Dichlorophenyl)-4-[4-(2-hydroxyphenyl)piperidino]butyl]-N-methylbenzamide hydrochloride], the Kb at guinea pig trachea (setting [2]) was 3.16 nM. Also, on human NK2 receptor (read-out: Ki (Test A)), the Ki is 2.8 nM.
For `CN(CC(CCN1CCC2(CC1)OC(=O)c1ccccc12)c1ccc(Cl)c(Cl)c1)C(=O)c1ccccc1` (centres unmarked) [Example 24, N-[2-(3,4-Dichlorophenyl)-4-(3-oxospiro[isobenzofuran-1(3H),4'-piperidin]-1'-yl)butyl]-N-methylbenzamide hydrochloride], the Kb at guinea pig trachea (pKB (Test B)) was 6.31 nM. This compound returned a Ki at human NK2 receptor of 3.5 nM.
On to `CN(CC(CCN1CC[C@H](c2ccccc2)[C@@H](O)C1)c1ccc(Cl)c(Cl)c1)C(=O)c1ccccc1` (relative stereo) [Example 10, N-[2-(3,4-Dichlorophenyl)-4-[(3R*,4R*)-3-hydroxy-4-phenylpiperidino]butyl-N-methylbenzamide hydrochloride], for which the Kb on guinea pig trachea (setting [2]) is 10 nM. Moreover, the Ki on human NK2 receptor (read-out: Ki (Test A)) was found to be 13 nM.
Take `CN(C[C@@H](CCN1CCC(c2ccccc2[S+](C)[O-])CC1)c1ccc(Cl)c(Cl)c1)C(=O)c1ccccc1.Cl` (stereo partly drawn) [Example 14, (S)-N-[2-(3,4-Dichlorophenyl)-4-[4-(2-methylsulfinylphenyl)piperidino]butyl]-N-methylbenzamide hydrochloride]: on guinea pig trachea (setting [2]), the Kb is 0.316 nM. The Ki on human NK2 receptor (read-out: Ki (Test A)) was found to be 0.3 nM. Moreover, in the test with NK2 receptor, the “number fully protected/total number tested (Test C)” value is reported as 8/8 and the “percent protection (Test C)” value was determined as 100%.
Regarding `CC(=O)NC1(c2ccccc2)CCN(CC[C@H](CN(C)C(=O)c2ccccc2)c2ccc(Cl)c(Cl)c2)CC1` [SR 48968, N-[4-(4-acetylamino-4-phenylpiperidino)-2-(3,4-dichlorophenyl)butyl]-N-methylbenzamide, reference compound], the Ki in test [1] was 0.5 nM.
Consider `CN(C[C@@H](CCN1CCC(c2cccnc2)CC1)c1ccc(Cl)c(Cl)c1)C(=O)c1ccccc1.Cl` [Example 9, (S)-N-[2-(3,4-Dichlorophenyl)-4-[4-(3-pyridyl)piperidino]butyl]-N-methylbenzamide hydrochloride], for which the Kb at guinea pig trachea (setting [2]) is 2.51 nM. Also, the Ki on human NK2 receptor (read-out: Ki (Test A)) was 2 nM. In the test on NK2 receptor, the “number fully protected/total number tested (Test C)” value is recorded as 5/6 and the “percent protection (Test C)” value turned out to be 90%.
For `CSc1ccccc1C1CCN(CCC(CN(C)C(=O)c2ccccc2)c2ccc(Cl)c(Cl)c2)CC1.Cl` (centres unmarked) [Example 13, N-[2-(3,4-Dichlorophenyl)-4-[4-(2-methylthiophenyl)-piperidino]butyl]-N-methylbenzamide hydrochloride], the Kb at guinea pig trachea (setting [2]) is 2.51 nM. Moreover, the Ki at human NK2 receptor (read-out: Ki (Test A)) was found to be 3 nM. Further, in the test on NK2 receptor, the “number fully protected/total number tested (Test C)” value is reported as 3/6 and the “percent protection (Test C)” value stood at 78%.
